Data reported in patent US20250296934A1, “AZEPINOINDOLES AND METHODS OF PREPARATION THEREOF” (priority 2022, published 2025).
Read-outs that look alike come from different tables or passages of the source.

Tests used:
5-HT1F = biological target: T1, 5-HT1F (Homo sapiens, UniProt P30939); assay: 5-HT receptor activity (Table 3), 5-HT1F; format: cell-based
T1 sequence (P30939 1-366): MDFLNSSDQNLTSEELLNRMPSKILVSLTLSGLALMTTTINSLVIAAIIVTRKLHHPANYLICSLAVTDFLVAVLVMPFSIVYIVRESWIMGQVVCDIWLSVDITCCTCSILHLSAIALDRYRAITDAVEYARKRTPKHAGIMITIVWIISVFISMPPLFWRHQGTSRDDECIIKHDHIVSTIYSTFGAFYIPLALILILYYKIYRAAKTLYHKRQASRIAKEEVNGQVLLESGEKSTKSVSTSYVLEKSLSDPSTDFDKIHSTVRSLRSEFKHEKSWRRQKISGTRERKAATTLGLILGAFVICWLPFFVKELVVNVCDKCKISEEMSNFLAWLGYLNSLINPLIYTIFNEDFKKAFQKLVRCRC

5-HT2B [1] = biological target: T2, 5-HT2B (Homo sapiens, UniProt P41595); assay: 5-HT receptor activity (Table 3), 5-HT2B; format: cell-based
Target sequence in this assay (P41595 whole entry, species assumed): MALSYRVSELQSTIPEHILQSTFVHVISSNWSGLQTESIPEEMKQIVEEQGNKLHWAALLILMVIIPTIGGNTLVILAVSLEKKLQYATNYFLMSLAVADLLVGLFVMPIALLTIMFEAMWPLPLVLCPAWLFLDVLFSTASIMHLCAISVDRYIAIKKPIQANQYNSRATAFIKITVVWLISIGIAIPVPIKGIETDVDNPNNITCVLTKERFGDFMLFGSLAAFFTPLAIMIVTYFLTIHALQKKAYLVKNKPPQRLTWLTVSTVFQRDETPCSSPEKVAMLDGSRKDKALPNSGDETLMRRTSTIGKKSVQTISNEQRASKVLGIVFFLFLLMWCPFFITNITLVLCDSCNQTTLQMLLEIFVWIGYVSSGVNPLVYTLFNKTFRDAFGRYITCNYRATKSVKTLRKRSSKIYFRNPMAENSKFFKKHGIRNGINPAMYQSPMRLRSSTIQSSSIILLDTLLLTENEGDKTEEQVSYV

5-HT4 = 5-HT4 (Homo sapiens, UniProt Q13639); assay: 5-HT receptor activity (Table 3), 5-HT4; format: cell-based
Sequence of 5-HT4 (Q13639 whole entry, species assumed): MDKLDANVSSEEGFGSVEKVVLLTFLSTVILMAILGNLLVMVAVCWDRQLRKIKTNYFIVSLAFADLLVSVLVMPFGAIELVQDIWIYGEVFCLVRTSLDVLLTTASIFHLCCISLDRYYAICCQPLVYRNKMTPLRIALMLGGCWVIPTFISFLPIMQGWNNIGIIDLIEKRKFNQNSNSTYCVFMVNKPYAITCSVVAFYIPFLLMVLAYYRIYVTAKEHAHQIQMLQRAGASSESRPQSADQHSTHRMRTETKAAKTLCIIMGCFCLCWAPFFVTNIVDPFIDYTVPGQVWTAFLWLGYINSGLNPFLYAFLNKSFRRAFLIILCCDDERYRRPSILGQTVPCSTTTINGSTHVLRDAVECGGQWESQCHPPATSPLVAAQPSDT

5-HT5A = 5-HT5A (Homo sapiens, UniProt P47898); assay: 5-HT receptor activity (Table 3), 5-HT5A; format: cell-based
Sequence of 5-HT5A (P47898 whole entry, species assumed): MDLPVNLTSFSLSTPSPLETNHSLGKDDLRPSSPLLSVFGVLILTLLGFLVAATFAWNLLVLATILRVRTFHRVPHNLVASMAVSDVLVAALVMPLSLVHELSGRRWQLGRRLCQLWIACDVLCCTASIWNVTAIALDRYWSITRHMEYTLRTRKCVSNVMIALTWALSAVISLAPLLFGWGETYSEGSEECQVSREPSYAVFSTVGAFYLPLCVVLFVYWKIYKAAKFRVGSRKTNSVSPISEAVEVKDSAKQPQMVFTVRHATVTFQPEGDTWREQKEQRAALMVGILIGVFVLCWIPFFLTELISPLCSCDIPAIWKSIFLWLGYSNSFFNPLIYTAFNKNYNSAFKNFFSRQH

[2] = tested on: SafetyScreen44™ panel hits; assay: Follow up functional assays of SafetyScreen44 hits; parameters: species or system human
Procedure: Various compounds disclosed herein were subjected to an in vitro SafetyScreen44™ panel for identifying off-target activity. Compounds of interest that are identified in the panel are then tested in follow up functional assays to identify if such compounds have a significant off-target risk. […] It is predicted that other compounds share similar characteristics with compound 1 and also lack of the off-target activity.

[3] = In vitro hepatocyte clearance, monkey; format: in vitro ADME; details: Monkey hepatocytes
Procedure: (§1) Additional experimentation was performed on compounds 1, W5, and A93. Table 6a, 6b and 6c summarize, among other things, the anticipated hepatic clearance of compounds 1, W5 and A93 respectively, in various species, as specified in Table 6a, 6b and 6c and as determined by calculating the in vitro hepatocyte clearance over time and scaling such rate with such species' hepatocyte count and the anticipated liver blood flow rate in such species.

hepatocyte = assay: In vitro hepatocyte clearance, monkey; format: in vitro ADME; details: Monkey
Procedure: as §1

Plasma PK in rat = format: in vivo
Text: (§2) Tables 7a and 7b summarize, among other things, the observed plasma PK properties in animals, for Compound 1: […]

Plasma PK in dog = format: in vivo
Text: as §2

mice = assay: Head Twitch Response (HTR) in mice; format: in vivo; details: Mus musculus, 1 h, measured over a 60 minute interval
Procedure: Head Twitch Response (HTR) was assessed using a head-mounted neodymium magnet and a magnetometer detection coil, as described in Halberstadt et al., Psychopharmacology (Berl.), 2013, 227 (4): 727-739. Table 8 below summarizes the ED50 in head twitch (as measured over a 60 minute interval) in mice as a result of Compound 1 as compared to psilocybin.

5-HT2B [4] = biological target: T2, 5-HT2B; assay: 5-HT2B Gq dissociation BRET functional assay; format: cell-based; parameters: expressed in transfected cells; host or cells: HEK293T
Target sequence in this assay (P41595 whole entry): as the sequence (P41595 whole entry, species assumed) above

5-HT2C = biological target: T3, 5-HT2C (Homo sapiens, UniProt P28335); assay: cell-based; format: cell-based; parameters: expressed in transfected cells; host or cells: HEK293T
T3 sequence (P28335 33-458): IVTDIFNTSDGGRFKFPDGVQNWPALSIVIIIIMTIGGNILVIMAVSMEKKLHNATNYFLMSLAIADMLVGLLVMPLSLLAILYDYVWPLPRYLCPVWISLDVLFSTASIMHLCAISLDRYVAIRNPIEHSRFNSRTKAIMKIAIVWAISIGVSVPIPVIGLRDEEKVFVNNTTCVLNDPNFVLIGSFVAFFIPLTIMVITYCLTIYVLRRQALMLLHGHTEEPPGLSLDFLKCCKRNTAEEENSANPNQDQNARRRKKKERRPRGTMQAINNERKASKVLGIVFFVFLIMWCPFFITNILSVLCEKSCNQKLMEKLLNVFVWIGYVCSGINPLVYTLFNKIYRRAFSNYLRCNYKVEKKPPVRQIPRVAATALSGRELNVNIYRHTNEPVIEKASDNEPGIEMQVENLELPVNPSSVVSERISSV

[5] = normalized to % 5-HT stimulation

Cc1ccc(O)c2c3c([nH]c12)CCNCC3 [Cpd #1 (Pharm-136), 7-Methyl-1,2,3,4,5,6-hexahydroazepino[4,5-b]indol-10-ol]
EC50 (5-HT1F): 460 nM
Eff (5-HT1F): 56%
EC50 (5-HT2B [1]): 4.2 nM
Eff (5-HT2B [1]; 5-HT2B, Table 3): 50%
EC50 (5-HT4): Not active
EC50 (5-HT5A): Not active
Follow up studies [2]: No significant off-
Follow up studies ([2]; listed as compound 1): does not possess significant off-target activity
hepatocyte CLint [3]: < 2.71 µL/min/1e6 cells
half-life ([3]; read-out: In vitro T1/2): > 8.53 h
CLint scaled ([3]; read-out: Scale-up Clint): < 9.75 mL/min/kg
Hepatic Extraction Ratio (E) (hepatocyte): <0.18
Predicted hepatic CL (hepatocyte): <7.97 mL/min/kg
AUC(0-t) (Plasma PK in rat; IP, 10 mg/kg): 193 ng·h/mL
Cl_F (Plasma PK in rat; IP, 10 mg/kg): 816.02 mL/min/kg
Vz_F (Plasma PK in rat; IP, 10 mg/kg): 225.48 L/kg
half-life (Plasma PK in rat; IP, 10 mg/kg): 3.3 h
AUC(0-t) (Plasma PK in rat; IV, 2.5 mg/kg): 37.5 ng·h/mL
half-life (Plasma PK in rat; IV, 2.5 mg/kg): 3.93 h
clearance (Plasma PK in rat; IV, 2.5 mg/kg, read-out: Cltot (converted)): 1070 mL/min/kg
Vd (Plasma PK in rat; IV, 2.5 mg/kg, read-out: Vss): 0.204 L/kg
AUC(0-t) (Plasma PK in dog; IV, 2 mg/kg): 1200 ng·h/mL
half-life (Plasma PK in dog; IV, 2 mg/kg): 2.84 h
clearance (Plasma PK in dog; IV, 2 mg/kg, read-out: Cltot (converted)): 24.6 mL/min/kg
Vd (Plasma PK in dog; IV, 2 mg/kg, read-out: Vss): 5.15 L/kg
AUC(0-t) (Plasma PK in dog; PO, 10 mg/kg): 5460 ng·h/mL
Vz_F (Plasma PK in dog; PO, 10 mg/kg): 7.648 L/kg
half-life (Plasma PK in dog; PO, 10 mg/kg): 3.21 h
ED50 (mice): 3.6 mg/kg
Count (n. of wells) (TA98; TA98 + S9, 1.0E−04M): 0 n. of wells
Significance (TA98; TA98 + S9, 1.0E−04M): Negative
Count (n. of wells) (TA98; TA98 + S9, 1.0E−05M): 3 n. of wells
Significance (TA98; TA98 + S9, 1.0E−05M): Negative
Count (n. of wells) (TA98; TA98 + S9, 5.0E−05M): 0 n. of wells
Significance (TA98; TA98 + S9, 5.0E−05M): Negative
Count (n. of wells) (TA98; TA98 + S9, 5.0E−06M): 9 n. of wells
Significance (TA98; TA98 + S9, 5.0E−06M): Weak positive
Count (n. of wells) (TA98; TA98 − S9, 1.0E−04M): 0 n. of wells
Significance (TA98; TA98 − S9, 1.0E−04M): Negative
Count (n. of wells) (TA98; TA98 − S9, 1.0E−05M): 0 n. of wells
Significance (TA98; TA98 − S9, 1.0E−05M): Negative
Count (n. of wells) (TA98; TA98 − S9, 5.0E−05M): 0 n. of wells
Significance (TA98; TA98 − S9, 5.0E−05M): Negative
Count (n. of wells) (TA98; TA98 − S9, 5.0E−06M): 1 n. of wells
Significance (TA98; TA98 − S9, 5.0E−06M): Negative
EC50 (5-HT2B [4]): 3.5 nM
5-HT2B BRET Eff (5-HT2B [4]; [5]): 52%
EC50 (5-HT2C; Gq dissociation BRET, HEK293T): 0.5 nM
5-HT2C BRET Eff (5-HT2C; [5]): 101%
